# Tests used:
# [1] = tested on: E2-CAR-T cells; assay: 3H-EC17 uptake by E2-CAR-T cells; format: binding, human; conditions: read-out: Kd of 3H-EC17 (estimated); unsorted E2-CAR-T cells (~24% EGFRt+, ~95:5 CD8/CD4), 2 hour at room temperature
# Description: (calculated from the numbers of molecules bound per cell).
# Principle Components of CAM Controlled CAR T Cell Therapy. The basic components of the CAR-T cell therapy involve FITC as the pseudo tumor antigen, the high affinity EC17 CAM (a CAM is equivalent to a bridge or the “compound” in this application), and a rationally designed anti-FITC CAR and CAR-modified T cells. The EC17 has already been tested in the clinic for immunotherapy and optical imaging purposes. To directly quantify its bispecific binding affinities, ^3H-EC17 was synthesized and radioligand binding assays were carried out on KB and CHO-β cell lines representing FRα+ and FRβ+ target cells, respectively, and on unsorted EGFRt CAR-T cells representing the effector cells.
# [2] = tested on: HOS-143b; assay: Specific lysis at varying E/T ratios with 10 nM EC17, FR-negative cells; format: cell-based, human; conditions: 10 nM EC17, E2-CAR-T cells, 48 hours of co-culture
# Description: After 24 hours of co-culture, supernatants were harvested to determine tumor cell killing. To study the kinetics of T cell activation and FR correlation in vitro (FIG. 60A, FIG. 60B, FIG. 60C, FIG. 60D, FIG. 60E), co-cultures were carried out in FR+/− cell lines at varying E/T ratios (1:27, 1:9, 1:3, 1:1, 3:1) in the continuous presence of 10 nM EC17. The kinetics of tumor cell killing were quantified after 16 and 48 hours of co-culture. Meanwhile, a portion of the supernatants was taken after 44 hours of co-culture for measurement of IFNg, IL-2 and TNFα. Using Promega's CytoTox 96® LDH assay kit, target cell killing was quantified and expressed as specific lysis (%) which was normalized to basal levels in the absence of EC17 at defined E/T ratios. The LEGENDplex™ human Th1 cytokine panel (BioLegend, San Diego, Calif.) was used to determine CAR-T cell derived cytokines.
# Specific lysis (%) was quantified after 16 and 48 hours of co-culture, and Th1 cytokines (IFNg, TNFa) in culture media were measured after 44 hours of co-culture. […] It generally took a longer time (48 hours) and a higher E/T ratio (≥1:1) to see significant activity in the lowest FR-expressing OV90 cells (FIG. 60A). The high FR-expressing KB cells responded very slowly and also required a higher E/T ratio (≥1:3) and longer exposure time to cause significant cell death (FIG. 60B, left plot).
# [3] = tested on: MDA-MB-231 tumors; assay: EC17/E2-CAR T-cell therapy in NSG mice bearing MDA-MB-231 tumors; format: in vivo; conditions: 10 million E2 CAR-T cells, EC17 500 nmol/kg days 2 and 10, versus no EC17
# Description: MDA-MB-231 tumor cells were grown in folate-deficient RPMI 1640 with 5-10% FBS at 37° C. in a 5% CO2 humidified atmosphere. MDA-MB-231 tumor cells were inoculated subcutaneously at 2.5×10^6 cells per animal. Only […] mice were inoculated and the remaining 22 mice were kept tumor-free.
# EGFRt-sorted anti-FITC E2 scFv-CAR T cells were frozen in a T-cell freezing medium. Vials of frozen CAR-T cells were immediately stored at −80° C. The CAR-T cells were quickly thawed at 37° C., washed twice with PBS, and used for animal injection at 10 million viable EGFRt+E2 CAR-T cells (CD4/CD8 at ˜1:1) per animal. […]
# Whole blood cell analysis: Plasma was removed from predetermined volumes of whole EDTA treated blood and RBCs were lysed with RBC lysis solution. […] Determination of the concentration of CAR T cells in each blood sample was calculated according to Invitrogen's instructions. CAR T cells were identified as human CD3ε+ EGFRt+ events and easily distinguished and counted using the Kaluza™ flow cytometry software. The number of CAR T cells in the circulation of each infused mouse was then represented on the graphs as the total number of CAR T cells per 100 μL of whole blood analyzed. Statistical significance was determined by utilizing an unpaired, two-tailed, students t30 test with significance set at p<0.05. […]
smiles,measurement,setting,value
"NC1=NC2N=CC(CNc3ccc(C(=O)N[C@@H](CCC(=O)NCCNC(=S)Nc4ccc(-c5c6ccc(=O)cc-6oc6cc(O)ccc56)c(C(=O)O)c4)C(=O)O)cc3)=NC2C(=O)N1 (stereo partly drawn) [EC17, FA-(g)-ethylenediamine-FITC]",Kd,[1],~130 nM
same,specific lysis of FR-negative cells,[2],essentially unharmed
same,"cytokine levels (IL2, IFN-γ, IL-10) in plasma",[3],all increased

# Source: patent US11311576B2, “Methods of use for CAR T cells” (Seattle Children's Hospital, priority 2018, dated 2022)
